Legend:
Format in all cases: cell-based, human
[1] = test system: hESCs; assay: Viability of hESC-derived cells, Sytox Blue Live/Dead Stain; details: 1 μM SR-1 or 10 nM TCDD
Method: FIG. 8A. Non-adherent hematopoietic progenitor cells derived from hESCs were harvested at Day 6+3, Day 6+5, Day 6+7, and Day 6+9 time points and probed for gene expression by quantitative real-time PCR (qPCR). For each gene, Ct values were normalized to GAPDH at each time point and data is presented as relative fold-change as compared to undifferentiated hESCs. […] FIG. 8B Undifferentiated hESCs were cultured in the presence of 1 μM SR-1, 10 nM TCDD, or DMSO vehicle control for 96 hours and probed for gene expression by qPCR. For each gene, Ct values were normalized to GAPDH at each time point and data is presented as relative fold-change as compared to DMSO treated hESCs. n=3, error bars represent SEM, *p<0.05 assessed by two-way ANOVA+Tukey-Kramer multiple comparisons post-hoc test. FIG. 8C. Both adherent and non-adherent cell fractions treated with either DMSO, SR-1, or TCDD were harvested at Day 6+3, Day 6+6, and Day 6+9 and probed for viability with Sytox Blue Live/Dead Stain. […]
Harvested cells were incubated with PE-Cy7 CD34 (BD Biosciences, San Jose, Calif.) in conjunction with APC CD31, APC CD41a, APC CD43, or APC CD45 for 30 minutes at 4° C. in FACS buffer (DPBS containing 2% fetal bovine serum and 0.1% sodium azide). […] Cells were analyzed using an LSRII flow cytometer (BD Biosciences) and data were analyzed using FlowJo software (TreeStart, Ashland, Oreg.).

[2] = test system: AHR-target genes (CYP1A1 and CYP1B1) in H9 hESCs; assay: qPCR of AHR downstream gene targets in undifferentiated hESCs; details: 1 μM SR-1 or 10 nM TCDD for 96 hours, compared to DMSO controls
Method: Undifferentiated H9 hESCs were treated with either DMSO (vehicle), 1 μM SR-1, or 10 nM TCDD for 96 hours in hESC growth media. Quantitative polymerase chain reaction analysis for AHR and two downstream effector gene targets (CYP1A1 and CYP1B1) are shown.
FIG. 8A. Non-adherent hematopoietic progenitor cells derived from hESCs were harvested at Day 6+3, Day 6+5, Day 6+7, and Day 6+9 time points and probed for gene expression by quantitative real-time PCR (qPCR). For each gene, Ct values were normalized to GAPDH at each time point and data is presented as relative fold-change as compared to undifferentiated hESCs. […] FIG. 8B Undifferentiated hESCs were cultured in the presence of 1 μM SR-1, 10 nM TCDD, or DMSO vehicle control for 96 hours and probed for gene expression by qPCR. For each gene, Ct values were normalized to GAPDH at each time point and data is presented as relative fold-change as compared to DMSO treated hESCs. n=3, error bars represent SEM, *p<0.05 assessed by two-way ANOVA+Tukey-Kramer multiple comparisons post-hoc test. FIG. 8C. Both adherent and non-adherent cell fractions treated with either DMSO, SR-1, or TCDD were harvested at Day 6+3, Day 6+6, and Day 6+9 and probed for viability with Sytox Blue Live/Dead Stain. Total percentage of viable cells for each group and time point are plotted. n=3.
H9 human embryonic stem cells (H9 hESCs; University of Wisconsin, Madison, Wis.) were adapted to passage as single cells using TrypLE (Invitrogen, Carlsbad, Calif.) as previously described (Ng et al. Nat. Protoc. 3, 768-76 (2008)). H9 hESCs were maintained on irradiated mouse embryonic fibroblasts in ES cell growth medium including Dulbecco's modified Eagle's medium (DMEM)/Ham's F-12 medium (F12) (Invitrogen) supplemented with 15% Knockout Serum Replacer (Invitrogen), 1 mM L-glutamine (Invitrogen), 0.1 mM β-mercaptoethanol (Sigma Aldrich, St. Louis, Mo.), 1% minimum essential medium nonessential amino acids (Invitrogen), 4 ng/mL basic fibroblast growth factor (R&D Systems Inc., Minneapolis, Minn.), and 1% penicillin-streptomycin (Invitrogen) incubated at 37° C. in a humidified atmosphere containing 5% CO2. Single-cell adapted hESCs were subjected to hemato-endothelial differentiation as spin embryoid bodies (“spin-EBs”), also previously described (Ng et al. Nat. Protoc. 3, 768-76 (2008); Knorr et al. Stem Cells Dev. 22, 1861-9 (2013); Ferrell et al., Stem Cells 33(4), 1130-41 (2015)). […]

[3] = test system: hESC-derived NK cells; assay: CD107a degranulation assay with K562 target cells; details: Day 11+28, K562 targets at 2:1 effector:target ratio, 4 hours

SMILES | cytotoxic effects on hESCs [1] | expression of CYP1A1 [2] | expression of CYP1B1 [2] | CD107a expression (percentage of CD107a+ cells) [3] [%]
Clc1cc2c(cc1Cl)Oc1cc(Cl)c(Cl)cc1O2 [TCDD, 2,3,7,8-tetrachlorodibenzo-p-dioxin] | no significant cytotoxic effects | significantly increased expression | significantly increased expression | 36.8±2.1
CC(C)n1cnc2c(NCCc3ccc(O)cc3)nc(-c3csc4ccccc34)nc21 [SR-1, StemReginin-1] | no significant cytotoxic effects | reduced expression | reduced expression | 58.1±0.67
